Reference: patent publication US10538567B2, “Compounds as peptidic trigonal GLP1/glucagon/GIP receptor agonists” (priority 2016, dated 2020)
≈ marks a conversion by molar mass, not a printed value. Numbered stars: 1 amine (or outer) side, 2 acyl side, 3 side chain; on linkers, the order of the positions; unused ones are H or OH. Square brackets hold non-standard residues; d marks the D form. Side chains are listed from the residue outwards. Peptide text beside a SMILES is read from it. * marks the point of attachment. γGlu = O=C(O)[C@H](CCC(=O)[*:2])N[*:1]; Palmitoyl = CCCCCCCCCCCCCCCC(=O)*; Aib = CC(C)(N)C(=O)O

How the values were obtained:
[1] = Solubility assessment in solubility buffer system A; type: physicochemical; settings: acetate buffer pH 4.5 with m-cresol; acetate buffer pH 4.5, 2.7 mg/ml m-cresol, target 10 mg/ml
Procedure: Prior to the solubility measurement of a peptide batch, its purity was determined through UPLC/MS.
Therefore solutions from solid samples were prepared in a buffer system with a concentration of 10 mg/mL compound based on the previously determined % purity:
Solubility buffer system A) Acetate Buffer pH 4.5, 100 mM sodium acetate trihydrate, 2.7 mg/ml m-Cresol
UPLC-UV was performed after 1 hour of gentle agitation from the supernatant, which was obtained after 15 min of centrifugation at 2500 RCF (relative centrifugal acceleration).
The solubility was determined by the comparison of the UV peak area of 2 μL-injection of a buffered sample diluted 1:10 with a standard curve of a reference peptide with known concentration. The different UV extinction coefficients of sample and reference peptide were calculated based on the different amino acid sequences and considered in the concentration calculation.
Peptide samples were prepared in solubility buffer system A and solubility was assessed as described in Methods.

[2] = Dynamic light scattering, hydrodynamic radius as surrogate for DLS interaction parameter kD; type: physicochemical; settings: for Delta Rh [nm] = Rh5 − Rh1: DLS buffer system A pH 4.5; for Rh1 [nm] c = 1 mg/ml / Rh5 [nm] c = 5 mg/ml: hydrodynamic radius, DLS buffer system A pH 4.5, method C, 25° C.
Description: A monochromatic and coherent light beam (laser) is used to illuminate the liquid sample. Dynamic Light Scattering (DLS) measures light scattered from particles (1 nm≤radius≤1 μm) that undergo Brownian motion. This motion is induced by collisions between the particles and solvent molecules that themselves are moving due to their thermal energy. The diffusional motion of the particles results in temporal fluctuations of the scattered light [Pecora, R. Dynamic Light Scattering: Applications of Photon Correlation Spectroscopy, Plenum Press, 1985].
The scattered light intensity fluctuations are recorded and transformed into an autocorrelation function. By fitting the autocorrelation curve to an exponential function, the diffusion coefficient D of the particles in solution can be derived. The diffusion coefficient is then used to calculate the hydrodynamic radius Rh (or apparent Stokes radius) through the Stokes-Einstein equation assuming spherical particles. This calculation is defined in ISO 13321 and ISO 22412 [International Standard ISO13321 Methods for Determination of Particle Size Distribution Part 8: Photon Correlation Spectroscopy, International Organisation for Standardisation (ISO) 1996; International Standard ISO22412 Particle Size Analysis—Dynamic Light Scattering, International Organisation for Standardisation (ISO) 2008].
For every peptide solution, the hydrodynamic radius Rh and the diffusion constant D (related via the Stokes-Einstein equation) were determined as an average over triplicates. Both parameters were determined at different peptide concentrations (e.g., Rh1 and D1: 1 mg/ml and Rh5 and D5: 5 mg/ml) in the same buffer system. The difference of these parameters between low and high peptide concentration is a surrogate for the DLS interaction parameter kD. Rh5<Rh1 or D5>D1 correspond to kD>0 and therefore to repulsive inter-particle interactions that result in improved physical (or colloidal) stability.
DLS buffer system A) 25 mM acetate buffer pH 4.5, 3 mg/mL L-Methionine, 2.7 mg/mL m-cresol, 18 mg/mL Glycerol 85%
DLS Method C: DLS measurements were performed on a DynaPro Plate Reader II (Wyatt Technology, Santa Barbara, Calif., US) and using one of the following black, low volume, and non-treated plates: polystyrene 384 assay plate with clear bottom (Corning, N.Y., US), polystyrene 96 assay plate with clear bottom (Corning, N.Y., US), cyclo olefin polymer (COP) 384 assay plate with clear bottom (Aurora, Mont., US), or polystyrene 384 assay plate with clear bottom (Greiner Bio-One, Germany). The data were processed with the Dynamics software provided by Wyatt Technology. Parameters of the particle size distribution were determined with non-negatively constrained least squares (NNLS) methods using DynaLS algorithms. Measurements were taken at 25° C. with an 830 nm laser light source at an angle of 158°.
The hydrodynamic radius Rh of peptide samples was determined at different peptide concentrations (1 mg/ml and 5 mg/ml) in DLS buffer system A using DLS method C as described in Methods as surrogate for the DLS interaction parameter kD.

human GIP receptor = biological target: T1, human GIP receptor (Homo sapiens, UniProt P48546); assay: cAMP response (HTRF) of HEK-293 cells stably expressing human GIP receptor; type: cell-based; settings: Table 8; read-out: EC50 hGIP R
T1 construct: expressed in transfected cells; host or cells: HEK-293
T1 sequence (P48546 22-466): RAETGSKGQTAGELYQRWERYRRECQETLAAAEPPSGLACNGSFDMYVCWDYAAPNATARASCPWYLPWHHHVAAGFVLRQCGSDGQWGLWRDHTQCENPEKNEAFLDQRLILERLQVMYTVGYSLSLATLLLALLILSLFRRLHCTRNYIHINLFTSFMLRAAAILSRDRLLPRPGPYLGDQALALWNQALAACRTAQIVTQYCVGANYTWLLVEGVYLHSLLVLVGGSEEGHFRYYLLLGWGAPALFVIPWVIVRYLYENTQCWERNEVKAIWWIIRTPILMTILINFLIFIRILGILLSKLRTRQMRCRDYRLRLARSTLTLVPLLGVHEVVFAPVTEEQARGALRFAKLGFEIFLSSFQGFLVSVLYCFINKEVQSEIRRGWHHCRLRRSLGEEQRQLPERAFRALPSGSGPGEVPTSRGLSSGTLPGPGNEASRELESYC
How it was run: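 HEK-293 cells stably expressing human GIP receptor were incubated with compound for 30 min at room temperature in HBSS/20 mM HEPES/0.1% BSA with 2 mM IBMX. cAMP was measured by HTRF (665/616 nm ratio) after 1 h with detection reagents in lysis buffer; EC50 is the concentration giving 50% of maximal response.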

Row | solubility at 1 h [1] | Delta Rh [nm] = Rh5 − Rh1 [2] | Rh1 [nm] c = 1 mg/ml [2] | Rh5 [nm] c = 5 mg/ml [2] | EC50 (human GIP receptor) | Compound
1 | > 9.7 mg/mL | −0.9 nm | 2.5 nm | 1.7 nm | – | CCCCCCCCCCCCCCCC(=O)N[C@@H](CCC(=O)N[C@@H](CCC(=O)NCCCC[C@H](NC(=O)[C@H](CC(C)C)NC(=O)[C@H](CCCCN)NC(=O)[C@H](CO)NC(=O)[C@H](CC(C)C)NC(=O)[C@H](CC(=O)O)NC(=O)[C@H](CO)NC(=O)[C@@H](NC(=O)[C@H](Cc1ccccc1)NC(=O)[C@@H](NC(=O)CNC(=O)[C@H](Cc1c[nH]cn1)NC(=O)C(C)(C)NC(=O)[C@@H](N)Cc1c[nH]cn1)[C@@H](C)O)[C@@H](C)O)C(=O)N[C@@H](CCC(=O)O)C(=O)N[C@@H](CCC(=O)O)C(=O)N[C@@H](CCC(N)=O)C(=O)N[C@@H](CCCNC(=N)N)C(=O)N[C@@H](CCC(N)=O)C(=O)N[C@@H](CCCCN)C(=O)N[C@@H](CCC(=O)O)C(=O)N[C@@H](Cc1ccccc1)C(=O)N[C@H](C(=O)N[C@@H](CCC(=O)O)C(=O)N[C@@H](Cc1c[nH]c2ccccc12)C(=O)N[C@@H](CC(C)C)C(=O)N[C@@H](CCCCN)C(=O)N[C@@H](C)C(=O)NCC(=O)NCC(=O)N[C@@H](Cc1c[nH]cn1)C(=O)N1CCC[C@H]1C(=O)N[C@@H](CO)C(=O)NC(C)(C)C(=O)N[C@@H](CCCCN)C(=O)N1CCC[C@H]1C(=O)N1CCC[C@H]1C(=O)N1CCC[C@H]1C(=O)N[C@@H](CCCCN)C(N)=O)[C@@H](C)CC)C(=O)O)C(=O)O [SEQ ID NO: 6, H-Aib-H-G-T-F-T-S-D-L-S-K-L-K[gGlu-gGlu-Palm]-E-E-Q-R-Q-K-E-F-I-E-W-L-K-A-G-G-H-P-S-Aib-K-P-P-P-K-NH2]
2 | 9.5 mg/mL (≈ 1940 µM) | −0.4 nm | 3.0 nm | 2.6 nm | – | CCCCCCCCCCCCCCCC(=O)N[C@@H](CCC(=O)N[C@@H](CCC(=O)NCCCC[C@H](NC(=O)[C@H](CC(C)C)NC(=O)[C@H](CCCCN)NC(=O)[C@H](CO)NC(=O)[C@H](CC(C)C)NC(=O)[C@H](CC(=O)O)NC(=O)[C@H](CO)NC(=O)[C@@H](NC(=O)[C@H](Cc1ccccc1)NC(=O)[C@@H](NC(=O)CNC(=O)[C@H](Cc1c[nH]cn1)NC(=O)C(C)(C)NC(=O)[C@@H](N)Cc1c[nH]cn1)[C@@H](C)O)[C@@H](C)O)C(=O)N[C@@H](CCC(=O)O)C(=O)N[C@@H](CCC(=O)O)C(=O)N[C@@H](CCC(N)=O)C(=O)N[C@@H](CCCNC(=N)N)C(=O)N[C@@H](CCC(N)=O)C(=O)N[C@@H](CCCCN)C(=O)N[C@@H](CCC(=O)O)C(=O)N[C@@H](Cc1ccccc1)C(=O)N[C@H](C(=O)N[C@@H](CCC(=O)O)C(=O)N[C@@H](Cc1c[nH]c2ccccc12)C(=O)N[C@@H](CC(C)C)C(=O)N[C@@H](CCCCN)C(=O)N[C@@H](C)C(=O)NCC(=O)NCC(=O)N1CCC[C@H]1C(=O)N1CCC[C@H]1C(=O)N[C@@H](CO)C(=O)NC(C)(C)C(=O)N[C@@H](CCCCN)C(=O)N1CCC[C@H]1C(=O)N1CCC[C@H]1C(=O)N1CCC[C@H]1C(=O)N[C@@H](CCCCN)C(N)=O)[C@@H](C)CC)C(=O)O)C(=O)O [SEQ ID NO: 8, H-Aib-H-G-T-F-T-S-D-L-S-K-L-K[gGlu-gGlu-Palm]-E-E-Q-R-Q-K-E-F-I-E-W-L-K-A-G-G-P-P-S-Aib-K-P-P-P-K-NH2]
3 | > 9.8 mg/mL | – | – | – | 1.1 pM | CCCCCCCCCCCCCCCC(=O)N[C@@H](CCC(=O)N[C@@H](CCC(=O)NCCCC[C@H](NC(=O)[C@H](CC(C)C)NC(=O)[C@H](CCCCN)NC(=O)[C@H](CO)NC(=O)[C@H](CC(C)C)NC(=O)[C@H](CC(=O)O)NC(=O)[C@H](CO)NC(=O)[C@@H](NC(=O)[C@H](Cc1ccccc1)NC(=O)[C@@H](NC(=O)CNC(=O)[C@H](Cc1c[nH]cn1)NC(=O)C(C)(C)NC(=O)[C@@H](N)Cc1c[nH]cn1)[C@@H](C)O)[C@@H](C)O)C(=O)N[C@@H](CCC(=O)O)C(=O)N[C@@H](CCC(=O)O)C(=O)N[C@@H](CCC(N)=O)C(=O)N[C@@H](CCCNC(=N)N)C(=O)N[C@@H](CCC(N)=O)C(=O)NC(C)(C)C(=O)N[C@@H](CCC(=O)O)C(=O)N[C@@H](Cc1ccccc1)C(=O)N[C@H](C(=O)N[C@@H](CCC(=O)O)C(=O)N[C@@H](Cc1c[nH]c2ccccc12)C(=O)N[C@@H](CC(C)C)C(=O)N[C@@H](CCCCN)C(=O)N[C@@H](C)C(=O)NCC(=O)NCC(=O)N1CCC[C@H]1C(=O)N1CCC[C@H]1C(=O)N[C@@H](CO)C(=O)NC(C)(C)C(=O)N[C@@H](CCCCN)C(=O)N1CCC[C@H]1C(=O)N1CCC[C@H]1C(=O)N1CCC[C@H]1C(=O)N[C@@H](CCCCN)C(N)=O)[C@@H](C)CC)C(=O)O)C(=O)O [SEQ ID NO: 10, H-Aib-H-G-T-F-T-S-D-L-S-K-L-K[gGlu-gGlu-Palm]-E-E-Q-R-Q-Aib-E-F-I-E-W-L-K-A-G-G-P-P-S-Aib-K-P-P-P-K-NH2]
4 | > 9.8 mg/mL | – | – | – | 1.5 pM | CCCCCCCCCCCCCCCC(=O)N[C@@H](CCC(=O)N[C@@H](CCC(=O)NCCCC[C@H](NC(=O)[C@H](CC(C)C)NC(=O)[C@H](CCCCN)NC(=O)[C@H](CO)NC(=O)[C@H](CC(C)C)NC(=O)[C@H](CC(=O)O)NC(=O)[C@H](CO)NC(=O)[C@@H](NC(=O)[C@H](Cc1ccccc1)NC(=O)[C@@H](NC(=O)CNC(=O)[C@H](Cc1c[nH]cn1)NC(=O)C(C)(C)NC(=O)[C@@H](N)Cc1c[nH]cn1)[C@@H](C)O)[C@@H](C)O)C(=O)N[C@@H](CCC(=O)O)C(=O)N[C@@H](CCC(=O)O)C(=O)N[C@@H](CCC(N)=O)C(=O)N[C@@H](CCCNC(=N)N)C(=O)N[C@@H](CCC(N)=O)C(=O)NC(C)(C)C(=O)N[C@@H](CCC(=O)O)C(=O)N[C@@H](Cc1ccccc1)C(=O)N[C@H](C(=O)N[C@@H](CCC(=O)O)C(=O)N[C@@H](Cc1c[nH]c2ccccc12)C(=O)N[C@@H](CC(C)C)C(=O)N[C@@H](CCCCN)C(=O)N[C@@H](C)C(=O)N[C@H](C)C(=O)NCC(=O)N1CCC[C@H]1C(=O)N1CCC[C@H]1C(=O)N[C@@H](CO)C(=O)NC(C)(C)C(=O)N[C@@H](CCCCN)C(=O)N1CCC[C@H]1C(=O)N1CCC[C@H]1C(=O)N1CCC[C@H]1C(=O)N[C@@H](CCCCN)C(N)=O)[C@@H](C)CC)C(=O)O)C(=O)O [SEQ ID NO: 11, H-Aib-H-G-T-F-T-S-D-L-S-K-L-K[gGlu-gGlu-Palm]-E-E-Q-R-Q-Aib-E-F-I-E-W-L-K-A-dAla-G-P-P-S-Aib-K-P-P-P-K-NH2] (H-H[Aib]HGTFTSDLSKLK([γGlu-γGlu-Palmitoyl])EEQRQ[Aib]EFIEWLKA[dA]GPPS[Aib]KPPPK-NH2)
